In ChEMBL document CHEMBL2150866, “Irreversible 4-Aminopiperidine Transglutaminase 2 Inhibitors for Huntington's Disease” (ACS Med Chem Lett, 2012):

Experiments:
[1] = biological target: T1, Coagulation factor XIII A chain (Homo sapiens, UniProt P00488); test: Inhibition of human factor-13A
T1 sequence (P00488 whole entry): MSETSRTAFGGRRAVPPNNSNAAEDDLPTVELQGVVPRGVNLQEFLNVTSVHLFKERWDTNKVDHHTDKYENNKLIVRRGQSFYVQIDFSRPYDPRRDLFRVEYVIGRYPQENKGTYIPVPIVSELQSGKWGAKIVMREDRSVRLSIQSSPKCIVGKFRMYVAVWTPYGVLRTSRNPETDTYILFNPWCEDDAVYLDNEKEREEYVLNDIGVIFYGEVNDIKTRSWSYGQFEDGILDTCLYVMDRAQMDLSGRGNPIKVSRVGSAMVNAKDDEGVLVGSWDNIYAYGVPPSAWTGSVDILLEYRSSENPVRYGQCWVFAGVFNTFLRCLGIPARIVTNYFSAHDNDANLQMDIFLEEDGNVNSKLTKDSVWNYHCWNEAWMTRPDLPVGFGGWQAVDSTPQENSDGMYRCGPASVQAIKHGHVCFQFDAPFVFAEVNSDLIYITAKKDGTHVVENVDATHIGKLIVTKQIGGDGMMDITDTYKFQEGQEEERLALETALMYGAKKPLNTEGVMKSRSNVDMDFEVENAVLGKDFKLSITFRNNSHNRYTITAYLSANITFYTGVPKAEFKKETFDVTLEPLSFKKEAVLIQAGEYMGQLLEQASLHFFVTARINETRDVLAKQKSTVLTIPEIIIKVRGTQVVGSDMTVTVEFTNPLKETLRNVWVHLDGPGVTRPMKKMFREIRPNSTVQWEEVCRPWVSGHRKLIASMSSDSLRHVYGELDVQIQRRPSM

[2] = biological target: T2, Protein-glutamine gamma-glutamyltransferase 6 (Homo sapiens, UniProt O95932); test: Inhibition of human TGM6
T2 sequence (O95932 whole entry): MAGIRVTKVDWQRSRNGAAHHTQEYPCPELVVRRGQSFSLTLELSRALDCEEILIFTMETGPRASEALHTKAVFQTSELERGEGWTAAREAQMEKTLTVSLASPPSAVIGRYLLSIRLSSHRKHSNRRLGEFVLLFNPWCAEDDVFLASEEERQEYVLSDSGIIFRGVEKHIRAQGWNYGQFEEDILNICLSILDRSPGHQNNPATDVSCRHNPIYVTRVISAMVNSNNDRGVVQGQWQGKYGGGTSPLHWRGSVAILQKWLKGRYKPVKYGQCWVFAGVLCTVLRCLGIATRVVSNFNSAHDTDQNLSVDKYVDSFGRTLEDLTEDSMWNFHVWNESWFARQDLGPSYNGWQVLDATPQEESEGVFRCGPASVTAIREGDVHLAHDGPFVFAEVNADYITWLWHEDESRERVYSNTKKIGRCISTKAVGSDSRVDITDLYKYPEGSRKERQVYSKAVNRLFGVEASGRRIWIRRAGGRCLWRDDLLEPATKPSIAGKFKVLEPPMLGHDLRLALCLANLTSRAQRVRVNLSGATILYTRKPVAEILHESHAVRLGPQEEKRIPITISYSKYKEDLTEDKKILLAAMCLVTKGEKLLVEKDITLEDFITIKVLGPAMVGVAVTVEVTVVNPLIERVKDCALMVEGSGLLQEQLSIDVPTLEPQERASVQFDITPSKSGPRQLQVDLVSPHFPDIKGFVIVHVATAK

[3] = Half life in human plasma at 1 uM; assay type: ADME, cell-free
[4] = biological target: T3, Protein-glutamine gamma-glutamyltransferase (Homo sapiens, UniProt P21980); test: Inhibition of human TGM2
T3 sequence (P21980 whole entry): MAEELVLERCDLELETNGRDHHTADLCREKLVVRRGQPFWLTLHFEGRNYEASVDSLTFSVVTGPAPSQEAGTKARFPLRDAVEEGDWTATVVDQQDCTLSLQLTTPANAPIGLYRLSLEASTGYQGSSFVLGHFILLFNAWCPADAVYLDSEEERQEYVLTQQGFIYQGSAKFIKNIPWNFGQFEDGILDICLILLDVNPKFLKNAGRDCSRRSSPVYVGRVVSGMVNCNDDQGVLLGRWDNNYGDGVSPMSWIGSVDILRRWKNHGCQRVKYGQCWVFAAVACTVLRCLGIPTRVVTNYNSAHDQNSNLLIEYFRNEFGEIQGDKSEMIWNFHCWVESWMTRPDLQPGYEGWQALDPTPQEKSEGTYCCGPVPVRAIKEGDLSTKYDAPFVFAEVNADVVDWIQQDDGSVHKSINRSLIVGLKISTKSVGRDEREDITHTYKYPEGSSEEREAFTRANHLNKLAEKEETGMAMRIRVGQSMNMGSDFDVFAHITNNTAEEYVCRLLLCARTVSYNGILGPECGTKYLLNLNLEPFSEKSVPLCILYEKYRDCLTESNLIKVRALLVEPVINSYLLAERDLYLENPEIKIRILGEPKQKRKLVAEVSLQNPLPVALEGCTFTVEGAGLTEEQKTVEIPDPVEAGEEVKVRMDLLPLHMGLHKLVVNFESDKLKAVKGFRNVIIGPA

[5] = Chemical stability of the compound in phosphate buffer at pH 7.4 assessed as GSH adduct formation after 120 hrs; assay type: physicochemical; conditions: pH 7.4, 120 h
[6] = Half life in mouse plasma at 1 uM; assay type: ADME, cell-free
[7] = biological target: T4, Protein-glutamine gamma-glutamyltransferase E (Homo sapiens, UniProt Q08188); test: Inhibition of human TGM3
T4 sequence (Q08188 whole entry): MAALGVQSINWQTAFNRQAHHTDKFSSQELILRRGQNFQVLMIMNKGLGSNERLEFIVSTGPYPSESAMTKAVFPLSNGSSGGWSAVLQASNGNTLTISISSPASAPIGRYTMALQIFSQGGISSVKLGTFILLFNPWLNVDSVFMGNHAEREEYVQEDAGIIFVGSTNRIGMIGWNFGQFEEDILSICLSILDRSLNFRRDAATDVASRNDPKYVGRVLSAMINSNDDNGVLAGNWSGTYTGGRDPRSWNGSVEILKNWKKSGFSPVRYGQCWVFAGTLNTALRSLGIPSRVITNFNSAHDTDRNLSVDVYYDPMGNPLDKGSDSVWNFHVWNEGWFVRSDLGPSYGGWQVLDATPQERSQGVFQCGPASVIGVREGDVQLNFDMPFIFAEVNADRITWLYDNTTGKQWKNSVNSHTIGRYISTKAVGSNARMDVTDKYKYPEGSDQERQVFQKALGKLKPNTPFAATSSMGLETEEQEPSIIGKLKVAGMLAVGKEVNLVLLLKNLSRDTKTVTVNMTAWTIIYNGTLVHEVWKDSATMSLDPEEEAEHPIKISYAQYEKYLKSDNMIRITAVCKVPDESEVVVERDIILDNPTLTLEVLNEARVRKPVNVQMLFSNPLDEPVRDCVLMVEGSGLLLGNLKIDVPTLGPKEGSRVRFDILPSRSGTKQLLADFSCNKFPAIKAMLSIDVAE

[8] = biological target: T5, Protein-glutamine gamma-glutamyltransferase K (Homo sapiens, UniProt P22735); test: Inhibition of human TGM1
T5 sequence (P22735 whole entry): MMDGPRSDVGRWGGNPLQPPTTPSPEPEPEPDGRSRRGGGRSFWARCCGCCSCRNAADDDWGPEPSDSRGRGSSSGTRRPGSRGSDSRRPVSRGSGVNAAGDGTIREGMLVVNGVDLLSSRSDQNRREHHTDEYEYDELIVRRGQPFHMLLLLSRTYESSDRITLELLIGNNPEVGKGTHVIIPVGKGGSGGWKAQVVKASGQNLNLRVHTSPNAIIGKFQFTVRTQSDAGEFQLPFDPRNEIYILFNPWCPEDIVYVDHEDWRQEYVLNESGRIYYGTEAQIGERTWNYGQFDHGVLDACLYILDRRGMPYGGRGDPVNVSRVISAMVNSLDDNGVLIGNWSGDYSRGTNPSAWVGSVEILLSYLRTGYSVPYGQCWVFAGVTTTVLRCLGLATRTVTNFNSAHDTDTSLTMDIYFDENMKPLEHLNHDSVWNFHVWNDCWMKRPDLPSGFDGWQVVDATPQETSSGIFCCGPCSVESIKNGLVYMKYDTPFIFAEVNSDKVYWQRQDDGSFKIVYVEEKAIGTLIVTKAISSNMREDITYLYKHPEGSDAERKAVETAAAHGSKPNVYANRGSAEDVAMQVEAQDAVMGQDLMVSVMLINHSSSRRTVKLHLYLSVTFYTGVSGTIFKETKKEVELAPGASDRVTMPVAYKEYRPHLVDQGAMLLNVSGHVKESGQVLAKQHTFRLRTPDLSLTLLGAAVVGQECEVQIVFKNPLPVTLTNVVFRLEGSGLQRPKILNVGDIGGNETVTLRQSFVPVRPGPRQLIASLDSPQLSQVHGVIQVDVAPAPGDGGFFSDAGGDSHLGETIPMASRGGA

[9] = biological target: T6, Protein-glutamine gamma-glutamyltransferase 2 (Mus musculus, UniProt P21981); test: Inhibition of mouse TGM2
T6 sequence (P21981 whole entry): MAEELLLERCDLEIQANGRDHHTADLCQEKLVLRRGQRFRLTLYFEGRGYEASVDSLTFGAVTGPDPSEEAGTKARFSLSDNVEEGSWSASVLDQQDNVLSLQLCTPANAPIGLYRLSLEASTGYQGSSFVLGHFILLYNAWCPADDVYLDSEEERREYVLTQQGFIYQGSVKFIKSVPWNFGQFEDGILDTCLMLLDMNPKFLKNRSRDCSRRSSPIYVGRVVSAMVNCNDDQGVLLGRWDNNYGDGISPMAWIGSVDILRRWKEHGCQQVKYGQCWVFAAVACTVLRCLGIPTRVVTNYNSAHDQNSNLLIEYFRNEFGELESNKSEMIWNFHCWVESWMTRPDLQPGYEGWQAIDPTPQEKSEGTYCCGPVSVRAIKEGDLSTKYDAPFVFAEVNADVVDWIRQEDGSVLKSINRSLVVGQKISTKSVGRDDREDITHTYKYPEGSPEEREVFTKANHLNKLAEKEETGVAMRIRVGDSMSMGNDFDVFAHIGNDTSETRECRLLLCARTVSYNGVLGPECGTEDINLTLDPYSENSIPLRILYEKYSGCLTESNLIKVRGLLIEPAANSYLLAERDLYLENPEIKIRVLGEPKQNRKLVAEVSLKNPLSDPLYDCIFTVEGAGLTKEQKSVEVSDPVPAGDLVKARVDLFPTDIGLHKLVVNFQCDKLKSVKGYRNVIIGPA

[10] = Intrinsic clearance in mouse liver microsomes at 1 uM; assay type: ADME, Microsome; conditions: read-out: CLH
[11] = Apparent permeability from apical to basolateral side of wild type MDCK cells; assay type: ADME, cell-based, Canis lupus familiaris; conditions: dog
[12] = Efflux ratio of permeability in wild type MDCK cells; assay type: ADME, cell-based, Canis lupus familiaris; conditions: dog
[13] = Kinetic solubility of the compound in phosphate buffered saline at pH 7.4; assay type: physicochemical; conditions: read-out: Kinetic_solubility
[14] = Intrinsic clearance in human liver microsomes at 1 uM; assay type: ADME, Microsome; conditions: read-out: CLH

C=CC(=O)NC1CCN(S(=O)(=O)c2ccc(NC(=O)OCc3ccccc3)cc2)CC1
IC50 [1]: 3.6 µM
IC50 [2]: 8.9 µM
half-life at 1 µM [3]: > 6 h
IC50 [4]: 0.28 µM
Stability [5]: Stable
half-life at 1 µM [6]: 4 h
IC50 [7]: > 80 µM
IC50 [8]: 0.91 µM

C=CC(=O)NC1CCN(S(=O)(=O)c2ccc(C(=O)NCCc3ccc(OC)cc3)cc2)CC1
IC50 [1]: 6.4 µM
IC50 [2]: 34 µM
half-life at 1 µM [3]: > 6 h
half-life at 1 µM [6]: > 6 h
IC50 [8]: 1.2 µM
IC50 [9]: 0.055 µM

C=CC(=O)NC1CCN(S(=O)(=O)c2ccc(C(=O)NCCc3ccccc3)cc2)CC1
microsomal CLint at 1 µM [10]: 99 µL/min/mg
half-life at 1 µM [3]: > 6 h
IC50 [4]: 0.18 µM
Papp A→B [11]: 8.3 ×10⁻⁶ cm/s
half-life at 1 µM [6]: > 6 h
efflux ratio [12]: 44
solubility kinetic [13]: < 10 µg/mL
microsomal CLint at 1 µM [14]: 595 µL/min/mg
